Measured values published in ChEMBL document CHEMBL1141842, “Amathaspiramides A-F, novel brominated alkaloids from the marine bryozoan amathia wilsoni” (J Nat Prod, 1999).
The source made the active and inactive calls. The rule behind the calls is not given here.

Tests used:
[1] = system: Bacillus subtilis; experiment: Antibacterial activity against Bacillus subtilis at 60 ug/disk; type: functional; details: for zone of inhibition at 60 µg/disc: read-out: IZ
[2] = system: Trichophyton mentagrophytes; experiment: Antifungal activity against Trichophyton mentagrophytes at 60 ug/disk; type: functional; details: for zone of inhibition at 60 µg/disc: read-out: IZ
[3] = system: P388; experiment: Cytotoxicity against mouse P388 cells; type: functional, cell-based
[4] = system: Poliovirus 1; experiment: Antiviral activity against Human poliovirus 1 at 40 ug/well; type: functional, organism-based

Q: What does the source list for `COc1cc([C@H]2[C@@H](O)N(C)C(=O)[C@]23CCC=N3)c(Br)cc1Br` [AMATHASPIRAMIDE E]?
A: zone of inhibition at 60 µg/disc [1]: 1 mm; zone of inhibition at 60 µg/disc [2]: 1 mm; IC50 [3]: > 12.5 µg/mL; Activity [4]: Active

Q: What does the source list for `COc1cc([C@H]2[C@@H](O)N(C)C(=O)[C@]23CCC(=O)N3C)c(Br)cc1Br` [AMATHASPIRAMIDE B]?
A: Activity [1]: inactive; Activity [2]: inactive; IC50 [3]: > 12.5 µg/mL; Activity [4]: inactive

Q: Which Activity [1] does the source give for `COc1cc([C@H]2[C@@H](O)N(C)C(=O)[C@]23CCCN3)c(Br)cc1Br` [AMATHASPIRAMIDE C] here?
A: inactive

Q: And the Activity [2]?
A: inactive

Q: What about the IC50 [3] of the same compound?
A: > 12.5 µg/mL

Q: And the Activity [4]?
A: inactive

Q: Which results are given for `COc1cc([C@H]2[C@@H](O)N(C)C(=O)[C@]23CCCN3C)c(Br)cc1Br` [AMATHASPIRAMIDE A]?
A: zone of inhibition at 60 µg/disc [1]: 1 mm; zone of inhibition at 60 µg/disc [2]: 1 mm; IC50 [3]: > 12.5 µg/mL
